This note sets out measurements from patent US9498483B2, “2,3,5-trisubstituted thiophene compounds and uses thereof” (priority 2010, dated 2016).

In one experiment the target is T1, HCV polymerase (Hepatitis C virus genotype 1b, UniProt Q9WMX2).
T1 construct: (His)6 (C); made in house; host or cells: XL-1 cells (E. coli, by own knowledge)
The experiment is described as follows: Polymerase assay of Biological Example 1 (IC50 values of Table 3). Particulars: IC50 values of Table 3, polymerase assay of Biological Example 1; read-out: NS5B-enzyme3. Type of experiment: biochemical.

In experiment [1] the test system is HCV replicon I389luc-ubi-neo/NS3-3′/ET in ET (Huh-lucubineo-ET) cells. The experiment is described as follows: Replicon assay (Biological Example 2), luciferase readout. Type of experiment: cell-based. To be noted: Hepatitis C virus. The essentials: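 EC50 values come from Hill fits of % inhibition of replicon-driven firefly luciferase, relative to no-compound wells. Compounds were serially diluted (10 points, 3-fold, 0.1 nM–50 μM final, 0.5% DMSO) onto ET replicon cells and read after 48 h.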

The mark [2] stands for this setting: ET cells, luciferase activity 48 hours after compound.

As to `CCCN(CCC)c1ccc(S(=O)(=O)N2CC(=O)N(c3cc(-c4ccccc4)sc3C(=O)O)C(C3CCCCC3)C2)cn1` (stereo not shown) [Compound 77, 3-[2-Cyclohexyl-4-(6-dipropylamino-pyridine-3-sulfonyl)-6-oxo-piperazin-1-yl]-5-phenyl-thiophene-2-carboxylic acid], the IC50 at HCV polymerase was 3 nM; in experiment [1] (setting [2]), at most 100 nM.
For `CN1CCN(C(=O)c2ccc(-c3ccc(S(=O)(=O)N4CC(=O)N(c5cc(-c6ccccc6)sc5C(=O)O)[C@H](C5CCCCC5)C4)cn3)cc2)CC1` [Compound 202, 3-((R)-2-Cyclohexyl-4-{6-[4-(4-methyl-piperazine-1-carbonyl)-phenyl]-pyridine-3-sulfonyl)-6-oxo-piperazin-1-yl)-5-phenyl-thiophene-2-carboxylic acid] the same measures were 1 nM and at most 100 nM.
Taken in the same sequence, the figures for `CC(C)(C)OC(=O)NCC1CCN(c2ccc(S(=O)(=O)N3CC(=O)N(c4cc(-c5ccccc5)sc4C(=O)O)[C@H](C4CCCCC4)C3)cn2)CC1` [Compound 149, 3-{(R)-4-[4-(tert-Butoxycarbonyl-amino-methyl)-3,4,5,6-tetrahydro-2H-[1,2′]bipyridinyl-5′-sulfonyl]-2-cyclohexyl-6-oxo-piperazin-1-yl}-5-phenyl-thiophene-2-carboxylic acid] were 3 nM and at most 100 nM.
Taken in the same sequence, the figures for `CC(C)(C)OC(=O)N1CCN(c2ccc(S(=O)(=O)N3CC(=O)N(c4cc(-c5ccccc5)sc4C(=O)O)[C@H](C4CCCCC4)C3)cn2)C[C@@H]1CO` [Compound 161, (R)-4-{5-[(R)-4-(2-Carboxy-5-phenyl-thiophen-3-yl)-3-cyclohexyl-5-oxo-piperazine-1-sulfonyl]-pyridin-2-yl}-2-hydroxymethyl-piperazine-1-carboxylic acid tert-butyl ester] were 1 nM and at most 100 nM.
On to `COc1ccc(S(=O)(=O)N2CC(=O)N(c3cc(C#CC(C)(C)C)sc3C(=O)O)[C@H](C3CCCCC3)C2)cc1F` [Compound 246, 3-[(R)-2-Cyclohexyl-4-(3-fluoro-4-methoxy-benzenesulfonyl)-6-oxo-piperazin-1-yl]-5-(3,3-dimethyl-but-1-ynyl)-thiophene-2-carboxylic acid], for which the IC50 at HCV polymerase is 4 nM; in experiment [1] (setting [2]), at most 100 nM.
With `CC(C)(C)C#Cc1cc(N2C(=O)CN(S(=O)(=O)c3ccc(C(F)(F)F)nc3)C[C@H]2C2CCCCC2)c(C(=O)O)s1` [Compound 230, 3-[(R)-2-Cyclohexyl-6-oxo-4-(6-trifluoromethyl-pyridine-3-sulfonyl)-piperazin-1-yl]-5-(3,3-dimethyl-but-1-ynyl)-thiophene-2-carboxylic acid], the IC50 at HCV polymerase was 6 nM; in experiment [1] (between 100 nM and 5.0 uM) it was 100 to 5000 nM.
In the case of `CC(O)C1CCC(C2CCCCC2)N(c2cc(C#CC(C)(C)C)sc2C(=O)O)C1=O` (stereo not shown) [Compound 316, 3-[6-Cyclohexyl-3-(1-hydroxy-ethyl)-2-oxo-piperidin-1-yl]-5-(3,3-dimethyl-but-1-ynyl)-thiophene-2-carboxylic acid], the IC50 at HCV polymerase is 3 nM; in experiment [1] (setting [2]), at most 100 nM.
Consider `C[C@@H]1CCCCN1c1ccc(S(=O)(=O)N2CC(=O)N(c3cc(-c4ccccc4)sc3C(=O)O)[C@H](C3CCCCC3)C2)cn1` [Compound 183, 3-[(R)-2-Cyclohexyl-4-((R)-2-methyl-3,4,5,6-tetrahydro-2H-[1,2′]bipyridinyl-5′-sulfonyl)-6-oxo-piperazin-1-yl]-5-phenyl-thiophene-2-carboxylic acid], for which the IC50 at HCV polymerase is 1.8 nM; in experiment [1] (setting [2]), at most 100 nM.
In the case of `COc1ccc(S(=O)(=O)N2CC(=O)N(c3cc(C#CC(C)(C)C)sc3C(=O)O)[C@H](C3CCCCC3)C2)cc1` [Compound 190, 3-[(R)-2-Cyclohexyl-4-(4-methoxy-benzenesulfonyl)-6-oxo-piperazin-1-yl]-5-(3,3-dimethyl-but-1-ynyl)-thiophene-2-carboxylic acid], the IC50 on HCV polymerase is 1 nM; in experiment [1] (setting [2]) it was at most 100 nM.
Taken in the same sequence, the figures for `O=C(O)c1sc(-c2ccc(F)cc2)cc1N1C(=O)CN(S(=O)(=O)c2ccc(N3CCC(F)(F)C3)nc2)C[C@H]1C1CCCCC1` [Compound 286, 3-{(R)-2-Cyclohexyl-4-[6-(3,3-difluoro-pyrrolidin-1-yl)-pyridine-3-sulfonyl]-6-oxo-piperazin-1-yl}-5-(4-fluoro-phenyl)-thiophene-2-carboxylic acid] were 1 nM and at most 100 nM.
Taken in the same sequence, the figures for `O=C(O)c1sc(-c2ccc(F)cc2)cc1N1C(=O)CN(S(=O)(=O)c2ccc(N3CCCCCC3)nc2)C[C@H]1C1CCCCC1` [Compound 285, 3-[(R)-4-(6-Azepan-1-yl-pyridine-3-sulfonyl)-2-cyclohexyl-6-oxo-piperazin-1-yl]-5-(4-fluoro-phenyl)-thiophene-2-carboxylic acid] were 2 nM and at most 100 nM.
Taken in the same sequence, the figures for `CCn1cc(S(=O)(=O)N2CC(=O)N(c3cc(-c4ccc(C)cc4)sc3C(=O)O)[C@H](C3CCCCC3)C2)cn1` [Compound 296, 3-[(R)-2-Cyclohexyl-4-(1-ethyl-1H-pyrazole-4-sulfonyl)-6-oxo-piperazin-1-yl]-5-p-tolyl-thiophene-2-carboxylic acid] were 5 nM and at most 100 nM.
For `COC[C@@H]1CCCN1c1ccc(S(=O)(=O)N2CC(=O)N(c3cc(-c4ccc(F)cc4)sc3C(=O)O)[C@H](C3CCCCC3)C2)cn1` [Compound 279, 3-{(R)-2-Cyclohexyl-4-[6-((S)-2-methoxymethyl-pyrrolidin-1-yl)-pyridine-3-sulfonyl]-6-oxo-piperazin-1-yl}-5-(4-fluoro-phenyl)-thiophene-2-carboxylic acid], the IC50 at HCV polymerase was 1.1 nM; in experiment [1] (setting [2]), at most 100 nM.
For `CCC(C)S(=O)(=O)N1CC(=O)N(c2cc(-c3ccccc3)sc2C(=O)O)C(C2CCCCC2)C1` (stereo not shown) [Compound 45, 3-[4-(Butane-2-sulfonyl)-2-cyclohexyl-6-oxo-piperazin-1-yl]-5-phenyl-thiophene-2-carboxylic acid], the IC50 at HCV polymerase is 4900 nM; in experiment [1] (between 100 nM and 5.0 uM), 100 to 5000 nM.
For `O=C(O)c1sc(-c2ccccc2)cc1N1C(=O)CN(S(=O)(=O)c2ccc(F)cc2)CC1C1CCCCC1` (stereo not shown) [Compound 109, 3-[2-Cyclohexyl-4-(4-fluoro-benzenesulfonyl)-6-oxo-piperazin-1-yl]-5-phenyl-thiophene-2-carboxylic acid] the same measures were 30 nM and 100 to 5000 nM.
As to `CC(C)(C)C#Cc1cc(N2C(=O)CN(S(=O)(=O)c3ccc(F)cc3F)C[C@H]2C2CCCCC2)c(C(=O)O)s1` [Compound 281, 3-[(R)-2-Cyclohexyl-4-(2,4-difluoro-benzenesulfonyl)-6-oxo-piperazin-1-yl]-5-(3,3-dimethyl-but-1-ynyl)-thiophene-2-carboxylic acid], the IC50 is 3 nM on HCV polymerase and at most 100 nM in experiment [1] (setting [2]).
`CC(C)(C)C#Cc1cc(N2C(=O)C(CCO)CC[C@H]2C2CCCCC2)c(C(=O)O)s1` (stereo partly drawn) [Compound 342, 3-[(S)-6-Cyclohexyl-3-(2-hydroxy-ethyl)-2-oxo-piperidin-1-yl]-5-(3,3-dimethyl-but-1-ynyl)-thiophene-2-carboxylic acid]: the figures for the IC50 (on HCV polymerase; in experiment [1] (setting [2])) were 18 nM and at most 100 nM, respectively.
